US8674109B2, “Pesticidal compositions” (Dow AgroSciences, LLC., priority 2009, dated 2014)

Assays:
Assay type in all cases: in vivo
[1] = tested on: green peach aphid (Myzus persicae); experiment: Insecticidal test for green peach aphid in foliar spray assay on cabbage seedlings
Procedure: Insecticidal Test for Green Peach Aphid (Myzus persicae) in Foliar Spray Assay
Cabbage seedlings grown in 3-inch pots, with 2-3 small (3-5 cm) true leaves, were used as test substrate. The seedlings were infested with 20-50 green peach aphids (wingless adult and nymph) one day prior to chemical application. Four pots with individual seedlings were used for each treatment. Compounds (2 mg) were dissolved in 2 mL of acetone/methanol (1:1) solvent, forming stock solutions of 1000 ppm. The stock solutions were diluted 5× with 0.025% Tween 20 in H2O to obtain the solution at 200 ppm. A hand-held Devilbiss sprayer was used for spraying a solution to both sides of cabbage leaves until runoff. Reference plants (solvent check) were sprayed with the diluent only. Treated plants were held in a holding room for three days at approximately 25° C. and 40% relative humidity (RH) prior to grading. Evaluation was conducted by counting the number of live aphids per plant under a microscope. Insecticidal activity was measured by using Abbott's correction formula are presented in Table 2: Corrected % Control=100*(X−Y)/X
where • X=No. of live aphids on solvent check plants • Y=No. of live aphids on treated plants

[2] = tested on: corn earworm (CEW; Helicoverpa zea: Lepidoptera); experiment: Insecticidal test for corn earworm, 128-well diet tray assay
Procedure: Insecticidal Test for Corn Earworm (Helicoverpa zea)
(§1) Bioassays on corn earworm (CEW; Helicoverpa zea: Lepidoptera) were conducted using a 128-well diet tray assay. Three to five second instar CEW larvae were placed in each well (3 mL) of the diet tray that had been previously filled with 1 mL of artificial diet to which 50 μg/cm^2 of the test compound (dissolved in 50 μL of 90:10 acetone-water mixture) had been applied (to each of eight wells) and then allowed to dry. Trays were covered with a clear self-adhesive cover, and held at 25° C., 14:10 light-dark for six days. Percent mortality was recorded for the larvae in each well; activity in the eight wells was then averaged.

[3] = tested on: beet armyworm (BAW; Spodoptera exigua: Lepidoptera); experiment: Insecticidal test for beet armyworm, 128-well diet tray assay
Procedure: Insecticidal Test for Beet Armyworm (Spodoptera exigua)
as §1, with “beet armyworm (BAW; Spodoptera exigua:” for “corn earworm (CEW; Helicoverpa zea:”, “BAW” for “CEW”

Structure (SMILES) | % Mortality GPA 200 ppm [1] | % Mortality CEW 50 μg/cm^2 [2] | % Mortality BAW 50 μg/cm^2 [3]
CC(C)(C)OC(=O)Nc1ccc(-c2ncn(-c3ccc(OC(F)(F)C(F)(F)F)cc3)n2)cc1 [Compound 1, {4-[1-(4-pentafluoroethyloxyphenyl)-1H-[1,2,4]triazol-3-yl]-phenyl}-carbamic acid tert-butyl ester] | B (Less than 80) | A (50-100) | A (50-100)
CO[C@@H]1O[C@@H](C)[C@H](OC)[C@@H](OC(=O)Nc2ccc(-c3ncn(-c4ccc(OC(F)(F)F)cc4)n3)cc2)[C@H]1OC [Compound 2] | B (Less than 80) | B (Less than 50) | A (50-100)
CCOc1cnc(C(C)(C)OC(=O)Nc2ccc(-c3ncn(-c4ccc(OC(F)(F)F)cc4)n3)cc2)nc1 [Compound 3, {4-[1-(4-trifluoromethoxyphenyl)-1H-[1,2,4]triazol-3-yl]-phenyl}-carbamic acid 1-(5-ethoxy-pyrimidin-2-yl)-1-methyl-ethyl ester] | B (Less than 80) | B (Less than 50) | A (50-100)
CC1(OC(=O)Nc2ccc(-c3ncn(-c4ccc(OC(F)(F)F)cc4)n3)cc2)CCCCC1 [Compound 4] | B (Less than 80) | B (Less than 50) | B (Less than 50)
COCC(C)(C)OC(=O)Nc1ccc(-c2ncn(-c3ccc(OC(F)(F)F)cc3)n2)cc1 [Compound 5] | B (Less than 80) | A (50-100) | A (50-100)
CCCC(C)(C)OC(=O)Nc1ccc(-c2ncn(-c3ccc(OC(F)(F)F)cc3)n2)cc1 [Compound 6] | B (Less than 80) | B (Less than 50) | A (50-100)
CCOC(=O)c1csc(C(=O)C(C)(C)OC(=O)Nc2ccc(-c3ncn(-c4ccc(OC(F)(F)F)cc4)n3)cc2)n1 [Compound 7] | B (Less than 80) | B (Less than 50) | B (Less than 50)
CC(C)(OC(=O)Nc1ccc(-c2ncn(-c3ccc(OC(F)(F)F)cc3)n2)cc1)C(F)(F)F [Compound 8] | B (Less than 80) | A (50-100) | A (50-100)
CCCCC(C)OC(=O)Nc1ccc(-c2ncn(-c3ccc(OC(F)(F)F)cc3)n2)cc1 (stereo not drawn) [Compound 9, {4-[1-(4-trifluoromethoxyphenyl)-1H-[1,2,4]triazol-3-yl]-phenyl}-carbamic acid 1-methyl-pentyl ester] | B (Less than 80) | A (50-100) | A (50-100)
CC(C)OC(=O)Nc1ccc(-c2ncn(-c3ccc(OC(F)(F)C(F)(F)F)cc3)n2)cc1 [Compound 10] | B (Less than 80) | B (Less than 50) | A (50-100)
CC(C)(Cc1ccccc1)OC(=O)Nc1ccc(-c2ncn(-c3ccc(OC(F)(F)F)cc3)n2)cc1 [Compound 11, {4-[1-(4-trifluoromethoxyphenyl)-1H-[1,2,4]triazol-3-yl]-phenyl}-carbamic acid 1,1-dimethyl-2-phenyl-ethyl ester] | B (Less than 80) | A (50-100) | A (50-100)
C#CC(C)(C)OC(=O)Nc1ccc(-c2ncn(-c3ccc(OC(F)(F)F)cc3)n2)cc1 [Compound 12, {4-[1-(4-trifluoromethoxyphenyl)-1H-[1,2,4]triazol-3-yl]-phenyl}-carbamic acid 1,1-dimethyl-prop-2-ynyl ester] | B (Less than 80) | A (50-100) | A (50-100)
C#CC(C)(C)OC(=O)Nc1ccc(-c2ncn(-c3ccc(C(F)(F)F)cc3)n2)cc1 [Compound 13, {4-[1-(4-trifluoromethylphenyl)-1H-[1,2,4]triazol-3-yl]-phenyl}-carbamic acid 1,1-dimethyl-prop-2-ynyl ester] | B (Less than 80) | A (50-100) | A (50-100)
CC(C)(C#N)OC(=O)Nc1ccc(-c2ncn(-c3ccc(OC(F)(F)F)cc3)n2)cc1 [Compound 14, {4-[1-(4-trifluoromethoxyphenyl)-1H-[1,2,4]triazol-3-yl]-phenyl}-carbamic acid cyano-dimethyl-methyl ester] | – | B (Less than 50) | B (Less than 50)
CC(OC(=O)Nc1ccc(-c2ncn(-c3ccc(OC(F)(F)F)cc3)n2)cc1)C1CC1 (stereo not drawn) [Compound 15, 4 {4-[1-(4-trifluoromethoxyphenyl)-1H-[1,2,4]triazol-3-yl]-phenyl}-carbamic acid 1-cyclopropyl-ethyl ester] | B (Less than 80) | A (50-100) | A (50-100)
CC(OC(=O)Nc1ccc(-c2ncn(-c3ccc(OC(F)(F)F)cc3)n2)cc1)C1CCCCC1 (stereo not drawn) [Compound 16] | B (Less than 80) | B (Less than 50) | B (Less than 50)
CCOC(=O)CC(C)OC(=O)Nc1ccc(-c2ncn(-c3ccc(OC(F)(F)F)cc3)n2)cc1 (stereo not drawn) [Compound 17] | B (Less than 80) | A (50-100) | B (Less than 50)
COCCOCC(C)(C)OC(=O)Nc1ccc(-c2ncn(-c3ccc(OC(F)(F)F)cc3)n2)cc1 [Compound 18] | B (Less than 80) | A (50-100) | A (50-100)
C=CC(C)(C)OC(=O)Nc1ccc(-c2ncn(-c3ccc(OC(F)(F)F)cc3)n2)cc1 [Compound 19] | B (Less than 80) | A (50-100) | A (50-100)
CCCCC(OC(=O)Nc1ccc(-c2ncn(-c3ccc(OC(F)(F)F)cc3)n2)cc1)C(=O)OCC (stereo not drawn) [Compound 26, 2-{4-[1-(4-trifluoromethoxyphenyl)-1H-[1,2,4]triazol-3-yl]-phenylcarbamoyloxy}-hexanoic acid ethyl ester] | – | A (50-100) | A (50-100)
C[C@H](OC(=O)Nc1ccc(-c2ncn(-c3ccc(OC(F)(F)F)cc3)n2)cc1)c1ccccc1 [Compound 60] | – | A (50-100) | A (50-100)
C[C@@H](OC(=O)Nc1ccc(-c2ncn(-c3ccc(OC(F)(F)F)cc3)n2)cc1)c1ccccc1 [Compound 61] | – | A (50-100) | A (50-100)
O=C(Nc1ccc(-c2ncn(-c3ccc(OC(F)(F)F)cc3)n2)cc1)Oc1cccc(C(F)(F)F)c1 [Compound 125] | B (Less than 80) | – | –
O=C(Nc1ccc(-c2ncn(-c3ccc(OC(F)(F)F)cc3)n2)cc1)Oc1ccc(C(F)(F)F)cc1 [Compound 126] | B (Less than 80) | – | –
O=C(Nc1ccc(-c2ncn(-c3ccc(OC(F)(F)F)cc3)n2)cc1)Oc1ccc(F)cc1 [Compound 127] | B (Less than 80) | – | –
CN(C(=O)OC(C)(C)C)c1ccc(-c2ncn(-c3ccc(OC(F)(F)F)cc3)n2)cc1 [Compound 131, tert-butyl methyl(4-(1-(4-(trifluoromethoxy)phenyl)-1H-1,2,4-triazol-3-yl)phenyl)carbamate] | B (Less than 80) | – | –
